Assay results taken from ChEMBL document CHEMBL4420080, “Inhibitors of sox18 protein activity for treating angiogenesis- and/or lymphangiogenesis-related diseases” (2018).
Activity calls are given as the source filed them. The calls are words filed in the database; no cut-off is given here.

Assays:
[1] = Cytotoxicity in HEK293 cells assessed as reduction in cell viability incubated for 24 hrs by Alamar blue dye based assay; settings: human
[2] = biological target: T1, Transcription factor SOX-18 (Mus musculus) (UniProt P43680); assay: (§1) Competitive binding affinity to full-length mouse SOX18 expressed in Sf9 cells assessed as reduction in SOX1 8- DNA binding by measuring FP-bound fraction at 200 uM using FAM-labelled Prox1 -DNA element incubated for 5 mins in dark at room temperature, 10 mins at 37 degC and 30 mins at room temperature by fluorescence polarization assay relative to control; set-up: scale not given: the % may be the effect or the level left
T1 sequence (whole entry): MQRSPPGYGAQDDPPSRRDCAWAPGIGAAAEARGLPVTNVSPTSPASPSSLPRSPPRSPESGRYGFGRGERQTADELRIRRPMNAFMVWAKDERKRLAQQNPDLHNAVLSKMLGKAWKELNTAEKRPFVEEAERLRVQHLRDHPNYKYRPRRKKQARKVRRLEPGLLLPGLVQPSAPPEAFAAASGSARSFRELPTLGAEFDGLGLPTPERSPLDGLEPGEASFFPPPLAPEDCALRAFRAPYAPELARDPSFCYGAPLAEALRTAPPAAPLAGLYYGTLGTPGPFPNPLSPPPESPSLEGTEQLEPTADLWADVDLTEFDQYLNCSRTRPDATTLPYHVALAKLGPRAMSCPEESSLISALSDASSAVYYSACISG

[3] = Cytotoxicity in human HepG2 cells assessed as reduction in cell viability incubated for 24 hrs by Alamar blue dye based assay
[4] = biological target: T1, Transcription factor SOX-18 (Mus musculus); assay: as §1, with “50” for “200”; set-up: scale not given: the % may be the effect or the level left
[5] = Cytotoxicity in African green monkey COS7 cells assessed as reduction in cell viability incubated for 24 hrs by Alamar blue dye based assay; set-up: species or system COS-7; settings: chlorocebus aethiops
[6] = Critical micellar concentration of the compound; assay type: physicochemical
[7] = biological target: T1, Transcription factor SOX-18 (Mus musculus); assay: as §1, with “binding” for “binding by measuring FP-bound fraction at 200 uM”, “element at 1 to 1000 uM” for “element”, “assay” for “assay relative to control”
4T1.2 = assay: Antitumor activity against mouse 4T1.2 cells implanted in BALB/c mouse assessed as median disease latency time at 25 mg/kg/day for 10 days (Rvb =33 days); assay type: functional

| SMILES | CC50 at 24 h [5] [µM] | CMC [6] [µM] | further results |
| --- | --- | --- | --- |
| CCN(CC)C(=O)c1c(CCc2ccc3ccccc3c2)cccc1OC | – | – | CC50 at 24 h [1]: 62.6 µM; Activity [2]: 117%; CC50 at 24 h [3]: 38.5 µM; Activity [4]: 100% |
| O=C(O)c1c(O)cccc1COCCc1ccccc1 | > 200 | – | – |
| CCCCCCCCCc1cccc(OC)c1C(=O)OC | – | 20 | – |
| COc1cccc(C=Cc2ccc3ccccc3c2)c1C(=O)O (mixture of isomers) | – | – | CC50 at 24 h [3]: > 100 µM |
| CCN(CC)C(=O)c1c(CCc2ccc3ccccc3c2)cc(OC)cc1OC | – | – | CC50 at 24 h [1]: 85.8 µM; Activity [2]: 107%; CC50 at 24 h [3]: 35.8 µM; Activity [4]: 97.3% |
| CCCCCCCCCc1cccc(O)c1C(=O)OC | – | 20 | – |
| CC(C)CCCC(C)CCCCc1cccc(O)c1C(=O)O (stereo unspecified) | – | 30 | – |
| Cc1cc(O)c(C(=O)O)c(CCc2ccc3ccccc3c2)c1 | – | – | CC50 at 24 h [3]: 377 µM |
| COC(=O)c1c(O)cccc1CCc1ccc2ccccc2c1 | – | 20 | – |
| Cc1ccc(Cl)c(Nc2ccccc2C(=O)O)c1Cl | – | – | Activity [7]: Active |
| O=C1N=C(N2CCCC2)S/C1=C/c1ccc(O)cc1O | > 200 | > 1000 | – |
| O=C(COc1ccc2ccccc2c1)c1ccc(O)cc1O | 98.6 | > 1000 | – |
| COc1ccc(OCC(=O)c2ccc(O)cc2O)cc1 | > 200 | > 1000 | – |
| CC(=O)Oc1ccccc1C(=O)O [ASPIRIN] | – | – | Time (4T1.2): 44 days |
| O=C(O)c1cccnc1Nc1cccc(C(F)(F)F)c1 | – | – | Activity [7]: Active |
| COc1cc(O)c(C(=O)O)c(C=Cc2ccc3ccccc3c2)c1 (mixture of isomers) | – | – | Activity [2]: 19.8% |
| COc1cccc(CCCCCCc2ccccc2)c1C(=O)O | > 200 | > 1000 | – |
| O=C(O)c1ccccc1Nc1cccc(C(F)(F)F)c1 | – | – | Activity [7]: Active |
| Cc1cccc2c(=O)c3c(O)cc(O)cc3oc12 | > 200 | > 1000 | – |
| COC(=O)c1c(O)cccc1CCCCC(C)CCCC(C)C (stereo unspecified) | – | 20 | – |
